pIC50: −log10 of the molar value. Read-outs that look alike come from different tables or passages of the source. Bridge positions count the residues as written; N and C are the ends. Square brackets hold non-standard residues; d marks the D form. Peptide text beside a SMILES is read from it. Trp(7-Me) = Cc1cccc2c(C[C@H](N)C(=O)O)c[nH]c12; 2Nal = N[C@@H](Cc1ccc2ccccc2c1)C(=O)O; AEF = NCCOc1ccc(C[C@H](N)C(=O)O)cc1; Cit = NC(=O)NCCC[C@H](N)C(=O)O; Pen = CC(C)(S)[C@H](N)C(=O)O; αMeK = C[C@](N)(CCCCN)C(=O)O; Aib = CC(C)(N)C(=O)O; βAla = NCCC(=O)O
How the values were obtained:
[1] = in vitro; details: human, pH 6.8; for half-life at 20 μM: 20% fecal homogenate (supernatant), anaerobic
Description: Fecal homogenate (20%) was prepared by adding 4 mL of growth medium (1 liter contains 2 g peptone water powder, 2 g yeast extract, 0.1 g NaCl, 0.04 g KH2PO4, 0.01 g CaCl2·6H2O, 0.01 g MgSO4·7H2O, 2 mL Tween 80, 0.5 g bile salts, 0.5 g L-cysteine HCl, 2 g NaHCO3, and 10 μL Vitamin K, pH adjusted to 6.8, and sterilized by filtration through a 0.22 μm filter) to every gram of feces (pooled freshly collected human or cynomolgus monkey feces). The suspension was vortexed to break up large clumps, and homogenized using a bead mill homogenizer. Centrifuged the homogenate at 2800×g for 15 min. The supernatant is taken out and used for incubations. DMSO stocks (10 mM) were first prepared for the test compounds. Incubations were performed in an anaerobic chamber conditioned at 37° C. Aliquots of the DMSO solutions were dosed into 1.0 mL aliquots of 20% fecal homogenate, which are pre-warmed to 37° C. The final test compound concentration was 20 μM. At each timepoint (0, 20 min, 1, 3, 6, or 24 hours), 100 μL aliquot of each incubation mixture is taken out and added to separate tubes containing 300 μL of 50% acetonitrile/50% methanol and an internal standard to terminate the reaction. Samples were taken out of the anaerobic chamber and stored at 4° C. until the end of the experiment. After the final timepoint is sampled, the tubes were mixed and then centrifuged at 3,000 rpm for 10 minutes. Aliquots of the supernatant were removed, diluted 1:1 into distilled water containing 0.1% formic acid, and analyzed by LC/MS/MS. Percent remaining at each timepoint was calculated based on the peak area response ratio of test to compound to internal standard. Time 0 was set to 100%, and all later timepoints were calculated relative to time 0. Half-lives were calculated by fitting to a first-order exponential decay equation using Graphpad or Excel.

[2] = biological target: T1, IL-23R (Homo sapiens, UniProt Q5VWK5); experiment: DB cells IL23R pSTAT3 cell assay (pStat3 HTRF); type: cell-based
T1 sequence (Q5VWK5 24-629): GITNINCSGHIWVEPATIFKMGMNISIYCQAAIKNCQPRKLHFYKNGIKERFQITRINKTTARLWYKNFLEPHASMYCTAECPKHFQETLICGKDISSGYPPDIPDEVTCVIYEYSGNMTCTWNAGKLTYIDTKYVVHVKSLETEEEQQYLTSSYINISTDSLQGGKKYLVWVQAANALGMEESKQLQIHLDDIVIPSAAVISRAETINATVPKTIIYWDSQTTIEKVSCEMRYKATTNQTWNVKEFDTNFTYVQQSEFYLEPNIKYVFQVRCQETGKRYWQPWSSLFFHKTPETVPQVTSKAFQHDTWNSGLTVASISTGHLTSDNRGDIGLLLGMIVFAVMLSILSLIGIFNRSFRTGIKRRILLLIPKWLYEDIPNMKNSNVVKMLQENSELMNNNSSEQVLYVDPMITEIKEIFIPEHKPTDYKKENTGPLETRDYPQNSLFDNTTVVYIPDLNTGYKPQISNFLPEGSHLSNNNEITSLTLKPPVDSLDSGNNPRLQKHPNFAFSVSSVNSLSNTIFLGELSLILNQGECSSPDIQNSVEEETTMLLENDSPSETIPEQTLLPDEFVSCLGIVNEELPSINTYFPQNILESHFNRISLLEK
How it was run: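 DB cells (5×10E5/well, RPMI-1640 + 10% FBS) stimulated with 0.5 nM final IL-23 plus serially diluted test peptides for 30 min at 37 °C, 5% CO2. Phospho-STAT3 (Tyr705) in lysates measured by HTRF using a two-plate protocol.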

[3] = in vitro; details: cynomolgus monkey, pH 6.8; for half-life at 20 μM: 20% fecal homogenate (supernatant), anaerobic
[4] = in vitro; details: both, SD, rat; for half-life at 20 μM: plasma (EDTA)
Description: Peptides of interest (20 μM) were incubated with pre-warmed rat plasma (SD rat, mixed gender pooled, EDTA, filtered through 0.22 μm, BioreclamationIVT) at 37° C. […] Quenched samples were stored at 4° C. until the end of the experiment and centrifuged at 4,000 rpm for 10 minutes. The supernatant were diluted 1:1 with deionized water and analyzed using LC-MS. Percentage remaining at each time point was calculated based on the peak area ratio (analyte over internal standard) relative to the initial level at time zero. Half-lives were calculated by fitting to a first-order exponential decay equation using GraphPad.

[5] = Table E3, DB cells, IL-23 0.5 nM, 30 minutes at 37° C., read-out: pStat3 HTRF (IC50)

| Structure (SMILES) | half-life at 20 μM [1] [h] | pIC50 [2, 5] | half-life at 20 μM [3] [h] | half-life at 20 μM [4] [h] | half-life ([1]; tissue homogenate) [h] | half-life ([3]; tissue homogenate) [h] | half-life ([4]; plasma) [h] | pIC50 [2] |
| --- | --- | --- | --- | --- | --- | --- | --- | --- |
| CC(=O)NCCCC[C@H](NC(=O)[C@](C)(CC(C)C)NC(=O)[C@H](Cc1ccc2ccccc2c1)NC(=O)[C@H](Cc1ccc(OCCN)cc1)NC(=O)[C@H]1NC(=O)[C@H](CCC(N)=O)NC(=O)[C@H](Cc2c[nH]c3c(C)cccc23)NC(=O)[C@H]([C@@H](C)O)NC(=O)[C@H](CC(N)=O)NC(=O)[C@@H](NC(C)=O)C(C)(C)SSC1(C)C)C(=O)N[C@H](C)C(=O)NCCC(N)=O [compound 209] | > 24 | 8.00 to 9.00 | > 24 | 1 |  |  |  |  |
| CC(=O)NCCCC[C@H](NC(=O)[C@](C)(CC(C)C)NC(=O)[C@H](Cc1ccc2ccccc2c1)NC(=O)[C@H](Cc1ccc(OCCN)cc1)NC(=O)[C@H]1NC(=O)[C@H](CCC(N)=O)NC(=O)[C@H](Cc2c[nH]c3c(C)cccc23)NC(=O)[C@H]([C@@H](C)O)NC(=O)[C@H](CC(N)=O)NC(=O)[C@@H](NC(C)=O)C(C)(C)SSC1(C)C)C(=O)N[C@H](CC(C)C)C(=O)NCCC(N)=O [compound 210] | > 24 | 7.00 to 8.00 | > 24 | < 0.3 |  |  |  |  |
| CC(=O)NCCCC[C@H](NC(=O)[C@](C)(CC(C)C)NC(=O)[C@H](Cc1ccc2ccccc2c1)NC(=O)[C@H](Cc1ccc(OCCN)cc1)NC(=O)[C@H]1NC(=O)[C@H](CCC(N)=O)NC(=O)[C@H](Cc2c[nH]c3c(C)cccc23)NC(=O)[C@H]([C@@H](C)O)NC(=O)[C@H](CC(N)=O)NC(=O)[C@@H](NC(C)=O)C(C)(C)SSC1(C)C)C(=O)N[C@H](Cc1ccccc1)C(=O)NCCC(N)=O [compound 213] | > 24 | 7.00 to 8.00 | > 24 | < 0.3 |  |  |  |  |
| CC(=O)NCCCC[C@H](NC(=O)[C@](C)(CC(C)C)NC(=O)[C@H](Cc1ccc2ccccc2c1)NC(=O)[C@H](Cc1ccc(OCCN)cc1)NC(=O)[C@H]1NC(=O)[C@H](CCC(N)=O)NC(=O)[C@H](Cc2c[nH]c3c(C)cccc23)NC(=O)[C@H]([C@@H](C)O)NC(=O)[C@H](CC(N)=O)NC(=O)[C@@H](NC(C)=O)C(C)(C)SSC1(C)C)C(=O)N[C@H](Cc1c[nH]cn1)C(=O)NCCC(N)=O [compound 215] |  | 8.00 to 9.00 |  |  | > 24 | > 24 | 2 |  |
| CC(=O)N[C@@H]1C(=O)N[C@@H](CC(N)=O)C(=O)N[C@@H]([C@@H](C)O)C(=O)N[C@@H](Cc2c[nH]c3c(C)cccc23)C(=O)N[C@@H](CCC(N)=O)C(=O)N[C@H](C(=O)N[C@@H](Cc2ccc(OCCN)cc2)C(=O)N[C@@H](Cc2ccc3ccccc3c2)C(=O)N[C@@](C)(CC(C)C)C(=O)NCC(=O)N2CCC[C@H]2C(=O)NCCC(N)=O)C(C)(C)SSC1(C)C [compound 219] | 16 | 7.00 to 8.00 | 24 | 3 |  |  |  |  |
| CC(=O)N[C@@H]1C(=O)N[C@@H](CC(N)=O)C(=O)N[C@@H]([C@@H](C)O)C(=O)N[C@@H](Cc2c[nH]c3c(C)cccc23)C(=O)N[C@@H](CCC(N)=O)C(=O)N[C@H](C(=O)N[C@@H](Cc2ccc(OCCN)cc2)C(=O)N[C@@H](Cc2ccc3ccccc3c2)C(=O)N[C@@](C)(CC(C)C)C(=O)NCC(=O)N2CCC[C@@H]2C(=O)NCCC(N)=O)C(C)(C)SSC1(C)C [compound 220] | > 24 | < 7.00 | 21 | 1 |  |  |  |  |
| CC(=O)NCCCC[C@H](NC(=O)[C@](C)(CCCCN)NC(=O)[C@H](Cc1ccc2ccccc2c1)NC(=O)[C@H](Cc1ccc(OCCN)cc1)NC(=O)[C@H]1NC(=O)[C@H](CCC(N)=O)NC(=O)[C@H](Cc2c[nH]c3cc(Cl)ccc23)NC(=O)[C@H]([C@@H](C)O)NC(=O)[C@H](CC(N)=O)NC(=O)[C@@H](NC(C)=O)C(C)(C)SSC1(C)C)C(=O)N[C@@H](CC(N)=O)C(=O)NCCC(N)=O [compound 228] | > 24 | 7.00 to 8.00 | 13 | > 24 |  |  |  |  |
| CC(=O)NCCCC[C@H](NC(=O)[C@](C)(CCCCN)NC(=O)[C@H](Cc1ccc2ccccc2c1)NC(=O)[C@H](Cc1ccc(OCCN)cc1)NC(=O)[C@H]1NC(=O)[C@H](CCC(N)=O)NC(=O)[C@H](Cc2c(C(C)(C)C)[nH]c3c(C(C)(C)C)cc(C(C)(C)C)cc23)NC(=O)[C@H]([C@@H](C)O)NC(=O)[C@H](CC(N)=O)NC(=O)[C@@H](NC(C)=O)C(C)(C)SSC1(C)C)C(=O)N[C@@H](CC(N)=O)C(=O)NCCC(N)=O [compound 233] | > 24 | < 7.00 | > 24 | > 24 |  |  |  |  |
| CC(=O)NCCCC[C@H](NC(=O)[C@](C)(CCCCN)NC(=O)[C@H](Cc1ccc2ccccc2c1)NC(=O)[C@H](Cc1ccc(OCCN)cc1)NC(=O)[C@H]1NC(=O)[C@H](CCC(N)=O)NC(=O)[C@H](Cc2c[nH]c3c(C)cccc23)NC(=O)[C@H]([C@@H](C)O)NC(=O)[C@H](CCC(N)=O)NC(=O)[C@@H](NC(C)=O)C(C)(C)SSC1(C)C)C(=O)N[C@@H](CC(N)=O)C(=O)NCCC(N)=O [compound 237] | > 24 | 8.00 to 9.00 | 6 | > 24 |  |  |  |  |
| CC(=O)NCCCC[C@H](NC(=O)[C@](C)(CCCCN)NC(=O)[C@H](Cc1ccc2ccccc2c1)NC(=O)[C@H](Cc1ccc(OCCN)cc1)NC(=O)[C@H]1NC(=O)C(C)(C)NC(=O)[C@H](Cc2c[nH]c3c(C)cccc23)NC(=O)[C@H]([C@@H](C)O)NC(=O)[C@H](CC(N)=O)NC(=O)[C@@H](NC(C)=O)C(C)(C)SSC1(C)C)C(=O)N[C@@H](CC(N)=O)C(=O)NCCC(N)=O [compound 241] (Ac-[Pen]NT[Trp(7-Me)][Aib][Pen][AEF][2Nal][αMeK]K(Ac)N[βAla]-NH2; disulfide 1-6) | > 24 | 7.00 to 8.00 | 15 | > 24 |  |  |  |  |
| CC(=O)NCCCC[C@@H]1NC(=O)[C@H](Cc2c[nH]c3c(C)cccc23)NC(=O)[C@H]([C@@H](C)O)NC(=O)[C@H](CC(N)=O)NC(=O)[C@@H](NC(C)=O)C(C)(C)SSC(C)(C)[C@@H](C(=O)N[C@@H](Cc2ccc(OCCN)cc2)C(=O)N[C@@H](Cc2ccc3ccccc3c2)C(=O)N[C@@](C)(CCCCN)C(=O)N[C@@H](CCCCNC(C)=O)C(=O)N[C@@H](CC(N)=O)C(=O)N[C@H](CC(C)C)C(N)=O)NC1=O [compound 245] | > 24 | > 9.00 | > 24 | > 24 |  |  |  |  |
| CC(=O)NCCCC[C@@H]1NC(=O)[C@H](Cc2c[nH]c3c(C)cccc23)NC(=O)[C@H]([C@@H](C)O)NC(=O)[C@H](CC(N)=O)NC(=O)[C@@H](NC(C)=O)C(C)(C)SSC(C)(C)[C@@H](C(=O)N[C@@H](Cc2ccc(OCCN)cc2)C(=O)N[C@@H](Cc2ccc3ccccc3c2)C(=O)N[C@@](C)(CCCCN)C(=O)N[C@@H](CCCCNC(C)=O)C(=O)N[C@@H](CC(N)=O)C(=O)N(C)[C@@H](CCCNC(=N)N)C(N)=O)NC1=O [compound 246] | > 24 | 8.00 to 9.00 | > 24 | > 24 |  |  |  |  |
| CC(=O)NCCCC[C@@H]1NC(=O)[C@H](Cc2c[nH]c3c(C)cccc23)NC(=O)[C@H]([C@@H](C)O)NC(=O)[C@H](CC(N)=O)NC(=O)[C@@H](NC(C)=O)C(C)(C)SSC(C)(C)[C@@H](C(=O)N[C@@H](Cc2ccc(OCCN)cc2)C(=O)N[C@@H](Cc2ccc3ccccc3c2)C(=O)N[C@@](C)(CCCCN)C(=O)N[C@@H](CCCCNC(C)=O)C(=O)N[C@@H](CC(N)=O)C(=O)N[C@H](CC(N)=O)Cc2ccccc2)NC1=O [compound 247] | > 24 |  | > 24 | > 24 |  |  |  | 8.00 to 9.00 |
| CC(=O)NCCCC[C@H](NC(=O)[C@](C)(CCCCN)NC(=O)[C@H](Cc1ccc2ccccc2c1)NC(=O)[C@H](Cc1ccc(OCCN)cc1)NC(=O)[C@H]1NC(=O)[C@H](CCCNC(N)=O)NC(=O)[C@H](Cc2c[nH]c3c(C)cccc23)NC(=O)[C@H]([C@@H](C)O)NC(=O)[C@H](CC(N)=O)NC(=O)[C@@H](NC(C)=O)C(C)(C)SSC1(C)C)C(=O)N[C@@H](CC(N)=O)C(=O)N[C@H](CCCNC(=N)N)C(N)=O [compound 256] (Ac-[Pen]NT[Trp(7-Me)][Cit][Pen][AEF][2Nal][αMeK]K(Ac)N[dR]-NH2; disulfide 1-6) | > 24 | > 9.00 | > 24 | > 24 |  |  |  |  |
| CC(=O)NCCCC[C@H](NC(=O)C1(NC(=O)[C@H](Cc2ccc3ccccc3c2)NC(=O)[C@H](Cc2ccc(OCCN)cc2)NC(=O)[C@H]2NC(=O)[C@H](CCC(N)=O)NC(=O)[C@H](Cc3c[nH]c4c(C)cccc34)NC(=O)[C@H]([C@@H](C)O)NC(=O)[C@H](CC(N)=O)NC(=O)[C@@H](NC(C)=O)C(C)(C)SSC2(C)C)CCC1)C(=O)N[C@@H](CC(N)=O)C(=O)NCCC(N)=O [compound 277] |  | > 9.00 | 5 | 6 |  |  |  |  |

— US20260116921A1, “PEPTIDE INHIBITORS OF INTERLEUKIN-23 RECEPTOR AND THEIR USE TO TREAT INFLAMMATORY DISEASES” (priority 2018, published 2026)
